# Tests used:
# CCRF-CEM = assay: panel of 60 human tumor cell lines, growth inhibition (Leukemia)
# SK-MEL-5 = assay: panel of 60 human tumor cell lines, growth inhibition (Melanoma); conditions: 8K-MEL-5
# UACC-257 = assay: as above; conditions: UACC-257
# COLO 205 = assay: panel of 60 human tumor cell lines, growth inhibition (Colon Cancer); conditions: COLO 205
# HCT-15 = assay: as above; conditions: HCT-15
# RXF 393 = assay: panel of 60 human tumor cell lines, growth inhibition (Renal Cancer); conditions: RXF 393
# TK-10 = assay: as above; conditions: TK-10
# MCF7 = assay: panel of 60 human tumor cell lines, growth inhibition (Breast Cancer); conditions: MCF7
# BT-549 = assay: as above; conditions: BT-549
# MDA-MB-468 = assay: as above; conditions: MDA-MB-468
# IGROV1 = assay: panel of 60 human tumor cell lines, growth inhibition (Ovarian Cancer); conditions: IGROVI
# OVCAR-3 = assay: as above; conditions: OVCAR-3
# OVCAR-8 = assay: as above; conditions: OVCAR-8
# SK-OV-3 = assay: as above; conditions: SK-OV-3
# A549/ATCC = assay: panel of 60 human tumor cell lines, growth inhibition (Non-Small Cell Lung Cancer); conditions: A549/ATCC
# HOP-92 = assay: as above; conditions: HOP-92
# NCI-H23 = assay: as above; conditions: NCI-H23
# NCI-H522 = assay: as above; conditions: NCI-H522
smiles,measurement,setting,value
C=C1C(=O)O[C@H]2[C@H]1CC/C(COC(=O)NCCO)=C\CC[C@@]1(C)O[C@@H]21 [JVM 2-50],Percent Growth,CCRF-CEM; Log10 Concentration −4.0,−44%
same,Percent Growth,CCRF-CEM; Log10 Concentration −5.0,1%
same,Percent Growth,CCRF-CEM; Log10 Concentration −6.0,83%
same,Percent Growth,CCRF-CEM; Log10 Concentration −7.0,102%
same,Percent Growth,CCRF-CEM; Log10 Concentration −8.0,98%
same,GI50,CCRF-CEM; NCI five dose,2.52 µM
same,TGI,CCRF-CEM; NCI five dose,1.03E−5
same,Percent Growth,SK-MEL-5; Log10 Concentration −4.0,−34%
same,Percent Growth,SK-MEL-5; Log10 Concentration −5.0,84%
same,Percent Growth,SK-MEL-5; Log10 Concentration −6.0,100%
same,Percent Growth,SK-MEL-5; Log10 Concentration −7.0,100%
same,Percent Growth,SK-MEL-5; Log10 Concentration −8.0,102%
same,GI50,SK-MEL-5; NCI five dose,19.5 µM
same,TGI,SK-MEL-5; NCI five dose,5.15E−5
same,Percent Growth,UACC-257; Log10 Concentration −4.0,−73%
same,Percent Growth,UACC-257; Log10 Concentration −5.0,44%
same,Percent Growth,UACC-257; Log10 Concentration −6.0,65%
same,Percent Growth,UACC-257; Log10 Concentration −7.0,90%
same,Percent Growth,UACC-257; Log10 Concentration −8.0,95%
same,GI50,UACC-257; NCI five dose,7 µM
same,TGI,UACC-257; NCI five dose,2.37E−5
same,Percent Growth,COLO 205; Log10 Concentration −4.0,−80%
same,Percent Growth,COLO 205; Log10 Concentration −5.0,21%
same,Percent Growth,COLO 205; Log10 Concentration −6.0,108%
same,Percent Growth,COLO 205; Log10 Concentration −7.0,106%
same,Percent Growth,COLO 205; Log10 Concentration −8.0,96%
same,GI50,COLO 205; NCI five dose,4.87 µM
same,TGI,COLO 205; NCI five dose,1.62E−5
same,Percent Growth,HCT-15; Log10 Concentration −4.0,−71%
same,Percent Growth,HCT-15; Log10 Concentration −5.0,16%
same,Percent Growth,HCT-15; Log10 Concentration −6.0,94%
same,Percent Growth,HCT-15; Log10 Concentration −7.0,95%
same,Percent Growth,HCT-15; Log10 Concentration −8.0,93%
same,GI50,HCT-15; NCI five dose,3.7 µM
same,TGI,HCT-15; NCI five dose,1.54E−5
same,Percent Growth,RXF 393; Log10 Concentration −4.0,−68%
same,Percent Growth,RXF 393; Log10 Concentration −5.0,20%
same,Percent Growth,RXF 393; Log10 Concentration −6.0,98%
same,Percent Growth,RXF 393; Log10 Concentration −7.0,93%
same,Percent Growth,RXF 393; Log10 Concentration −8.0,91%
same,GI50,RXF 393; NCI five dose,4.14 µM
same,TGI,RXF 393; NCI five dose,1.69E−5
same,Percent Growth,TK-10; Log10 Concentration −4.0,−91%
same,Percent Growth,TK-10; Log10 Concentration −5.0,55%
same,Percent Growth,TK-10; Log10 Concentration −6.0,110%
same,Percent Growth,TK-10; Log10 Concentration −7.0,103%
same,Percent Growth,TK-10; Log10 Concentration −8.0,100%
same,GI50,TK-10; NCI five dose,10.8 µM
same,Percent Growth,MCF7; Log10 Concentration −4.0,−59%
same,Percent Growth,MCF7; Log10 Concentration −5.0,16%
same,Percent Growth,MCF7; Log10 Concentration −6.0,84%
same,Percent Growth,MCF7; Log10 Concentration −7.0,89%
same,Percent Growth,MCF7; Log10 Concentration −8.0,87%
same,GI50,MCF7; NCI five dose,3.16 µM
same,TGI,MCF7; NCI five dose,1.61E−5
same,Percent Growth,BT-549; Log10 Concentration −4.0,−91%
same,Percent Growth,BT-549; Log10 Concentration −5.0,21%
same,Percent Growth,BT-549; Log10 Concentration −6.0,83%
same,Percent Growth,BT-549; Log10 Concentration −7.0,91%
same,Percent Growth,BT-549; Log10 Concentration −8.0,85%
same,GI50,BT-549; NCI five dose,3.26 µM
same,TGI,BT-549; NCI five dose,1.53E−5
same,Percent Growth,MDA-MB-468; Log10 Concentration −4.0,−67%
same,Percent Growth,MDA-MB-468; Log10 Concentration −5.0,−12%
same,Percent Growth,MDA-MB-468; Log10 Concentration −6.0,67%
same,Percent Growth,MDA-MB-468; Log10 Concentration −7.0,91%
same,Percent Growth,MDA-MB-468; Log10 Concentration −8.0,98%
same,GI50,MDA-MB-468; NCI five dose,1.64 µM
same,TGI,MDA-MB-468; NCI five dose,7.01E−6
same,Percent Growth,IGROV1; Log10 Concentration −4.0,−36%
same,Percent Growth,IGROV1; Log10 Concentration −5.0,49%
same,Percent Growth,IGROV1; Log10 Concentration −6.0,109%
same,Percent Growth,IGROV1; Log10 Concentration −7.0,106%
same,Percent Growth,IGROV1; Log10 Concentration −8.0,95%
same,GI50,IGROV1; NCI five dose,9.79 µM
same,TGI,IGROV1; NCI five dose,1.80E−5
same,Percent Growth,OVCAR-3; Log10 Concentration −4.0,−93%
same,Percent Growth,OVCAR-3; Log10 Concentration −5.0,40%
same,Percent Growth,OVCAR-3; Log10 Concentration −6.0,103%
same,Percent Growth,OVCAR-3; Log10 Concentration −7.0,106%
same,Percent Growth,OVCAR-3; Log10 Concentration −8.0,103%
same,GI50,OVCAR-3; NCI five dose,6.27 µM
same,TGI,OVCAR-3; NCI five dose,1.99E−5
same,Percent Growth,OVCAR-8; Log10 Concentration −4.0,−25%
same,Percent Growth,OVCAR-8; Log10 Concentration −5.0,62%
same,Percent Growth,OVCAR-8; Log10 Concentration −6.0,97%
same,Percent Growth,OVCAR-8; Log10 Concentration −7.0,96%
same,Percent Growth,OVCAR-8; Log10 Concentration −8.0,98%
same,GI50,OVCAR-8; NCI five dose,13.7 µM
same,TGI,OVCAR-8; NCI five dose,5.15E−5
same,Percent Growth,SK-OV-3; Log10 Concentration −4.0,23%
same,Percent Growth,SK-OV-3; Log10 Concentration −5.0,106%
same,Percent Growth,SK-OV-3; Log10 Concentration −6.0,103%
same,Percent Growth,SK-OV-3; Log10 Concentration −7.0,103%
same,Percent Growth,SK-OV-3; Log10 Concentration −8.0,92%
same,GI50,SK-OV-3; NCI five dose,47 µM
same,TGI,SK-OV-3; NCI five dose,>1.00E−4
same,Percent Growth,A549/ATCC; Log10 Concentration −4.0,3%
same,Percent Growth,A549/ATCC; Log10 Concentration −5.0,93%
same,Percent Growth,A549/ATCC; Log10 Concentration −6.0,96%
same,Percent Growth,A549/ATCC; Log10 Concentration −7.0,92%
same,Percent Growth,A549/ATCC; Log10 Concentration −8.0,96%
same,GI50,A549/ATCC; NCI five dose,30.2 µM
same,TGI,A549/ATCC; NCI five dose,>1.00E−4
same,Percent Growth,HOP-92; Log10 Concentration −4.0,−88%
same,Percent Growth,HOP-92; Log10 Concentration −5.0,13%
same,Percent Growth,HOP-92; Log10 Concentration −6.0,94%
same,Percent Growth,HOP-92; Log10 Concentration −7.0,86%
same,Percent Growth,HOP-92; Log10 Concentration −8.0,90%
same,GI50,HOP-92; NCI five dose,3.49 µM
same,TGI,HOP-92; NCI five dose,1.35E−5
same,Percent Growth,NCI-H23; Log10 Concentration −4.0,−53%
same,Percent Growth,NCI-H23; Log10 Concentration −5.0,67%
same,Percent Growth,NCI-H23; Log10 Concentration −6.0,100%
same,Percent Growth,NCI-H23; Log10 Concentration −7.0,102%
same,Percent Growth,NCI-H23; Log10 Concentration −8.0,98%
same,GI50,NCI-H23; NCI five dose,13.8 µM
same,TGI,NCI-H23; NCI five dose,3.61E−5
same,Percent Growth,NCI-H522; Log10 Concentration −4.0,−69%
same,Percent Growth,NCI-H522; Log10 Concentration −5.0,−56%
same,Percent Growth,NCI-H522; Log10 Concentration −6.0,97%
same,Percent Growth,NCI-H522; Log10 Concentration −7.0,104%
same,Percent Growth,NCI-H522; Log10 Concentration −8.0,98%
same,GI50,NCI-H522; NCI five dose,2.03 µM
same,TGI,NCI-H522; NCI five dose,4.30E−6

# — patent US9469650B2, “Melampomagnolide B derivatives” (BOARD OF TRUSTEES OF THE UNIVERSITY OF ARKANSAS, priority 2013, dated 2016)
